Test results published in ChEMBL document CHEMBL6120946, “From Hit to Lead: Discovery of First-In-Class Furanone Glycoside D228 Derived from Chimonanthus salicifolius for the Treatment of Inflammatory Bowel Disease” (J Med Chem, 2024).
Active and inactive are the calls of the source. The calls are words filed in the database; no cut-off is given here.

Columns and labels:
Mus musculus [1] = test: Antiinflammatory activity in DSS-induced male C57BL/6 mouse model of inflammatory bowel disease assessed as increase in colon length at 40 mg/kg/day, ip measured after 14 days relative to control; format: functional; details: time 14 day
Mus musculus [2] = test: Antiinflammatory activity in DSS-induced male C57BL/6 mouse model assessed as inhibition of IL-17A level in colon at 50 to 200 microM/Kg; format: functional, organism-based; details: dose 50-200 µM/Kg
Mus musculus [3] = organism: Mus musculus; test: Antiinflammatory activity in DSS-induced male C57BL/6 mouse model of inflammatory bowel disease assessed as reduction in JNK level; format: functional, organism-based
Mus musculus [4] = test: Antiinflammatory activity in DSS-induced male C57BL/6 mouse model of inflammatory bowel disease assessed as reduction of bloody stool at 15 to 60 mg/kg/day, po via gavage measured upto 14 days; format: functional, organism-based; details: dose 15-60 mg/kg/day, time <= 14.0 day
Mus musculus [5] = test: Antiinflammatory activity in DSS-induced male C57BL/6 mouse model of inflammatory bowel disease assessed as recovery from body weight loss at 20 mg/kg/day, ip measured after 14 days relative to control; format: functional; details: time 14 day
[6] = Toxicity in female Kunming mouse assessed as effect on lung at 100 to 500 mg/kg/day, po measured after 5 weeks by H and E staining based analysis; format: organism-based; details: in vivo, 840 h, dose 100-500 mg/kg/day
[7] = Toxicity in female Kunming mouse assessed as effect on BUN level in serum at 100 to 500 mg/kg/day, po measured after 5 weeks; format: organism-based; details: in vivo, 840 h, dose 100-500 mg/kg/day
[8] = Toxicity in male Kunming mouse assessed as change in food intake at 100 to 500 mg/kg/day, po measured after 5 weeks; format: organism-based; details: in vivo, 840 h, dose 100-500 mg/kg/day
[9] = Toxicity in female Kunming mouse assessed as effect on heart at 100 to 500 mg/kg/day, po measured after 5 weeks by H and E staining based analysis; format: organism-based; details: in vivo, 840 h, dose 100-500 mg/kg/day
[10] = Toxicity in male Kunming mouse assessed as effect on spleen to body weight ratio at 100 to 500 mg/kg/day, po measured after 5 weeks; format: organism-based; details: in vivo, 840 h, dose 100-500 mg/kg/day
[11] = Toxicity in female Kunming mouse assessed as effect on GLU level in serum at 100 to 500 mg/kg/day, po measured after 5 weeks; format: organism-based; details: in vivo, 840 h, dose 100-500 mg/kg/day
[12] = Toxicity in female Kunming mouse assessed as effect on TG level in serum at 100 to 500 mg/kg/day, po measured after 5 weeks; format: organism-based; details: in vivo, 840 h, dose 100-500 mg/kg/day
[13] = Toxicity in male Kunming mouse assessed as effect on K inorganic salt level in serum at 100 to 500 mg/kg/day, po measured after 5 weeks; format: organism-based; details: in vivo, 840 h, dose 100-500 mg/kg/day
[14] = Toxicity in male Kunming mouse assessed as effect on liver at 100 to 500 mg/kg/day, po measured after 5 weeks by H and E staining based analysis; format: organism-based; details: in vivo, 840 h, dose 100-500 mg/kg/day
[15] = Toxicity in female Kunming mouse assessed as effect on liver at 100 to 500 mg/kg/day, po measured after 5 weeks by H and E staining based analysis; format: organism-based; details: in vivo, 840 h, dose 100-500 mg/kg/day
[16] = Genotoxicity in erythrocyte (unknown origin) by Erythrocyte micronucleus test; format: toxicity, cell-based
[17] = Toxicity in female Kunming mouse assessed as effect on ABL level in serum at 100 to 500 mg/kg/day, po measured after 5 weeks; format: organism-based; details: in vivo, 840 h, dose 100-500 mg/kg/day
[18] = Toxicity in female Kunming mouse assessed as lethal dose administered as po measured after 5 weeks; format: organism-based; details: in vivo
Mus musculus [19] = test: Antiinflammatory activity in DSS-induced male C57BL/6 mouse model of inflammatory bowel disease assessed as amelioration of structural loss of colon at 50 to 100 microM/Kg by H and E staining based analysis; format: functional, organism-based; details: dose 50-100 µM/Kg
[20] = Toxicity in male Kunming mouse assessed as effect on BUN level in serum at 100 to 500 mg/kg/day, po measured after 5 weeks; format: organism-based; details: in vivo, 840 h, dose 100-500 mg/kg/day
[21] = Toxicity in female Kunming mouse assessed as effect on spleen to body weight ratio at 100 to 500 mg/kg/day, po measured after 5 weeks; format: organism-based; details: in vivo, 840 h, dose 100-500 mg/kg/day
[22] = Acute toxicity in female Kunming mouse assessed as effect on body weight loss 5 g/Kg, po measured after 5 weeks; format: organism-based; details: in vivo, 5000 mg/kg, 840 h
[23] = Metabolic stability in dog plasma assessed as half life at pH 7.4 measured upto 60 mins by HPLC-MS analysis; format: ADME, cell-free, Canis lupus familiaris
[24] = Toxicity in female Kunming mouse assessed as effect on TBIL level in serum at 100 to 500 mg/kg/day, po measured after 5 weeks; format: organism-based; details: in vivo, 840 h, dose 100-500 mg/kg/day
[25] = Toxicity in female Kunming mouse assessed as effect on Na inorganic salt level in serum at 100 to 500 mg/kg/day, po measured after 5 weeks; format: organism-based; details: in vivo, 840 h, dose 100-500 mg/kg/day
Mus musculus [26] = test: Antiinflammatory activity in DSS-induced male C57BL/6 mouse model of inflammatory bowel disease assessed as amelioration of infiltration of inflammatory cells at 50 to 100 microM/Kg by H and E staining based analysis; format: functional, organism-based; details: dose 50-100 µM/Kg
[27] = Toxicity in male Kunming mouse assessed as effect on GLU level in serum at 100 to 500 mg/kg/day, po measured after 5 weeks; format: organism-based; details: in vivo, 840 h, dose 100-500 mg/kg/day
[28] = Toxicity in female Kunming mouse assessed as effect on lung to body weight ratio at 100 to 500 mg/kg/day, po measured after 5 weeks; format: organism-based; details: in vivo, 840 h, dose 100-500 mg/kg/day
[29] = Toxicity in female Kunming mouse assessed as effect on K inorganic salt level in serum at 100 to 500 mg/kg/day, po measured after 5 weeks; format: organism-based; details: in vivo, 840 h, dose 100-500 mg/kg/day
[30] = Toxicity in female Kunming mouse assessed as effect on GGT level in serum at 100 to 500 mg/kg/day, po measured after 5 weeks; format: organism-based; details: in vivo, 840 h, dose 100-500 mg/kg/day
[31] = Toxicity in female Kunming mouse assessed as effect on T-CHO level in serum at 100 to 500 mg/kg/day, po measured after 5 weeks; format: organism-based; details: in vivo, 840 h, dose 100-500 mg/kg/day
Mus musculus [32] = test: Antiinflammatory activity in DSS-induced male C57BL/6 mouse model of inflammatory bowel disease assessed as downregulation of TRAF6 expression at 50 to 100 microM/Kg by Western blot analysis; format: functional, organism-based; details: dose 50-100 µM/Kg
[33] = Toxicity in male Kunming mouse assessed as effect on liver to body weight ratio at 100 to 500 mg/kg/day, po measured after 5 weeks; format: organism-based; details: in vivo, 840 h, dose 100-500 mg/kg/day
Mus musculus [34] = test: Antiinflammatory activity in DSS-induced male C57BL/6 mouse model assessed as inhibition of IL-17A level in colon at 50 to 100 microM/Kg; format: functional, organism-based; details: dose 50-100 µM/Kg
[35] = Acute toxicity in male Kunming mouse assessed as effect on kidney 5 g/Kg, po measured after 5 weeks; format: organism-based; details: in vivo, 5000 mg/kg, 840 h
[36] = Toxicity in female Kunming mouse assessed as effect on Cl inorganic salt level in serum at 100 to 500 mg/kg/day, po measured after 5 weeks; format: organism-based; details: in vivo, 840 h, dose 100-500 mg/kg/day
[37] = Toxicity in female Kunming mouse assessed as effect on ALP level in serum at 100 to 500 mg/kg/day, po measured after 5 weeks; format: organism-based; details: in vivo, 840 h, dose 100-500 mg/kg/day
Mus musculus [38] = test: Antiinflammatory activity in DSS-induced male C57BL/6 mouse model of inflammatory bowel disease assessed as restoration of colon length at 40 mg/kg/day, po via gavage measured after 14 days relative to control; format: functional; details: time 14 day
Mus musculus [39] = test: Antiinflammatory activity in DSS-induced male C57BL/6 mouse model of inflammatory bowel disease assessed as decrease in p38 phosphorylation level at 50 to 100 microM/Kg by Western blot analysis; format: functional, organism-based; details: dose 50-100 µM/Kg

In the case of `CC(C)=C1OC(C)=C(O[C@@H]2O[C@H](CO)[C@@H](O)[C@H](O)[C@H]2O)C1=O`, the Activity (Mus musculus [1]) is reported as 69.4%, the Activity (Mus musculus [2]) is reported as “Active” and the Activity (Mus musculus [3]) is reported as “Active”. The Activity (Mus musculus [4]) was “Active” and the Activity (Mus musculus [5]) was 50%.
For `CC(=O)OC[C@H]1O[C@@H](OC2=C(C)OC(=C(C)C)C2=O)[C@H](OC(C)=O)[C@@H](OC(C)=O)[C@@H]1OC(C)=O`, the Activity [6] was “Non-toxic”, the Activity [7] was “Non-toxic” and the Activity [8] was “Non-toxic”. For the same molecule, the Activity [9] was “Non-toxic”, the Activity [10] was “Non-toxic” and the Activity [11] was “Non-toxic”. The Activity [12] was “Non-toxic”, the Activity [13] was “Non-toxic” and the Activity [14] was “Non-toxic”. For the same molecule, the Activity [15] was “Non-toxic”, the Activity [16] was “Non-toxic” and the Activity [17] was “Non-toxic”. For the same molecule, the LD50 at 840 h [18] was over 500 mg/kg, the Activity (Mus musculus [19]) was “Active” and the Activity [20] was “Non-toxic”. For the same molecule, the Activity [21] was “Non-toxic”, the Activity [22] was “Non-toxic” and the half-life [23] was 32.5 min. The Activity [24] was “Non-toxic”, the Activity [25] was “Non-toxic” and the Activity (Mus musculus [26]) was “Active”. For the same molecule, the Activity [27] was “Non-toxic”, the Activity [28] was “Non-toxic” and the Activity [29] was “Non-toxic”. The Activity [30] was “Non-toxic”, the Activity [31] was “Non-toxic” and the Activity (Mus musculus [32]) was “Active”. The Activity [33] was “Non-toxic”, the Activity (Mus musculus [34]) was “Active” and the Activity [35] was “Non-toxic”. For the same molecule, the Activity [36] was “Non-toxic”, the Activity [37] was “Non-toxic” and the Activity (Mus musculus [38]) was 28.6%. The Activity (Mus musculus [39]) was “Active”.
